Results from article PMC10384639, “Increased In Vivo Exposure of N-(4-Hydroxyphenyl) Retinamide (4-HPR) to Achieve Plasma Concentrations Effective against Dengue Virus” (Pharmaceutics, 2023).
Several values for one entry are separate records, joined by “and”; a condition that tells them apart may be missing. Equal entries are not always repeated. Where two headings read alike, the source gives them in different places.

Legend:
[1] = Stability in diluted plasma matrix; format: in vitro ADME; conditions: diluted human plasma (10% v/v in pH 7.4 PBS)
Method: (§1) Protein binding of 4-HPR was assessed in human (pooled, Innovative Research Inc., Novi, MI, USA) and mouse (collected in-house from male C57BL6 mice) plasma via Rapid Equilibrium Dialysis (RED) using pre-saturated dialysis units as previously. Briefly, RED inserts were pre-saturated overnight with 400 ng/mL 4-HPR in PBS, after which solutions were removed and discarded, and 300 µL aliquots of diluted human or mouse plasma (10% v/v in pH 7.4 PBS) containing 4-HPR (2000 ng/mL) were added to the donor chamber of the RED inserts (n = 4/matrix) and dialysed against 500 µL of PBS (containing 40 ng/mL 4-HPR). During the 24 h dialysis period, the RED system was sealed with a gas impermeable film, and the plate was maintained at 37 °C under ambient atmosphere in an orbital plate shaker set at 800 rpm (ThermoMixer C; Eppendorf, Hamburg, Germany). At the end of the dialysis period, aliquots were taken from each donor and dialysate chamber to obtain post-dialysis measures of the total and unbound 4-HPR concentrations, respectively. The measured pH of pre- and post-dialysis donor matrix and dialysate buffer was within pH 7.4 ± 0.1.

[2] = Equilibrium solubility of 4-HPR in excipients and lipid-based formulations; format: physicochemical
Method: Excipients were weighed directly into glass vials at the indicated concentrations, mixed thoroughly, then transferred to Eppendorf tubes and loaded with an excess of 4-HPR. Formulations were then heated to 37 °C, vortexed extensively (initially every hour) and agitated with a stirrer and incubated at 37 °C in a shaking incubator. Periodically (every 1–3 days), undissolved drug was removed from the formulation by centrifugation (20 min at 2100× g, 37 °C) and 20 mg of supernatant was transferred to new tubes for quantification by UHPLC (stored at −20 °C), with the remaining formulation vortexed and agitated vigorously incubated at 37 °C in a shaking incubator until the next sampling. Samples were dissolved in 1 mL 1:1 chloroform:methanol, then diluted 1:100 in acetonitrile.
In this case, the UHPLC assay used a Shimadzu Nexera X2 UHPLC system (Shimadzu Corporation, Kyoto, Japan), with chromatographic separation on a C18 reverse phase column (Kinetex 2.6 μm C18 100 Å, LC Column 50 × 2.1 mm, Phenomenex Inc., Torrance, CA, USA) at 30 °C, with samples stored at 10 °C in the autosampler until injection (3 μL volume). Isocratic elution (79.95% acetonitrile, 19.95% H2O, 0.1% formic acid) was performed at a flow rate of 0.3 mL/min, with absorbance measured by the photodiode array detector. Then, 4-HPR standards (50–0.521 μg/mL) were created by successive serial dilution of a 50 μg/mL stock standard in acetonitrile, with area under curve at absorbance of 365 nm used to generate a standard curve using LabSolutions software V.5.82.

[3] = Plasma protein binding by Rapid Equilibrium Dialysis; format: in vitro ADME; conditions: 37 °C, corrected for dilution; for % Bound / Fraction Unbound 4-HPR: RED 24 h; for fraction unbound at 24 h, 2000 ng/mL: pH 7.4, RED 24 h, read-out: % Bound
Method: as §1
Donor and dialysate samples were processed and analysed using a matrix matching approach, and all samples were stored frozen at −80 °C until analysis by LC-MS. Compound binding was assessed on the basis of the measured concentrations in dialysate and donor samples at the end of the dialysis period, assuming that the system was at steady state by 24 h. As the binding assay was performed using diluted plasma, data were corrected for the dilution factor to give a binding value for neat plasma via an established approach which accounts for the shift in equilibria that occurs with protein dilution.

DENV [4] = conditions: cited from earlier work
DENV [5] = test system: DENV; design: method as in PMID 24903662; conditions: b.i.d 20 mg/kg 4-HPR, lethal ADE DENV infection; cited from earlier work
ZIKV = test system: ZIKV; design: method as in PMID 33439253; conditions: read-out: In vitro EC50; cited from earlier work
[6] = Single-dose IV PK of 4-HPR in mice with and without ABT; format: in vivo, male C57Bl/6 mice; conditions: for half-life / AUC(0-inf) / clearance / Vd: plasma; for half-life: read-out: Apparent t1/2 (converted); for AUC(0-inf): read-out: Plasma AUC0-inf; for Vd: read-out: Plasma VSS
Method: C57Bl/6 mice (22.6–28.7 g) having access to food and water ad libitum throughout the pre- and post-dose sampling period were dosed with 4-HPR either orally by gavage (2–10 mL/kg, depending upon formulation) or IV by bolus injection into the lateral tail vein (50 μL/animal, 2 mL/kg), and blood samples were collected up to 49 h post-dose by either submandibular bleed or terminal cardiac puncture (n = 3–5 mice per timepoint for each formulation) with a maximum of four samples from each mouse. Blood samples were mixed with heparin, potassium fluoride and complete protease inhibitor cocktail (Roche Diagnostics, Mannheim, Germany), centrifuged and supernatant plasma was removed and stored at −80 °C until analysis by LC-MS. Specifics of formulations used in PK experiments are detailed in Supplementary Table S1.
For in vivo CYP inhibition experiments, repeat oral doses of ABT (50 mg/kg b.i.d commencing 4 h before 4-HPR administration, 5 mL/kg by gavage) were administered according to a regimen shown to maintain ongoing CYP inhibition. Blood samples were collected from ABT-treated mice for up to 72 h after dosing 4-HPR.
For 4-HPR quantification, proteins were precipitated from plasma samples using acetonitrile (2-fold volume ratio) prior to analysis using a Waters Acquity Ultra-High Performance Liquid Chromatography (UHPLC) system coupled to a Waters Xevo TQ MS system (Waters Corporation, Milford, MA, USA). Chromatographic separation was performed using a C8 reverse phase column (Ascentis Express RP C8, 50 × 2.1 mm, 2.7 μm, Merck KGaA, Darmstadt, Germany) and a 3 μL injection volume. Gradient elution (methanol-water gradient with 0.05% formic acid) was performed at a flow rate of 0.4 mL/min, cycle time of 4 min, with detection by positive electrospray ionisation in multiple-reaction monitoring mode. Then, 4-HPR standards (10,000–0.5 ng/mL) were prepared in blank plasma, with diazepam as an internal standard (10 μL of 5 μg/mL in 50% acetonitrile/water per sample). For 4-HPR, the retention time was 2.97 min, m/z transition 392.23 > 161.15, cone voltage 30 V and CID 20 V.
The dose administered to each mouse was calculated on the basis of the pre-dose body weight, the volume of formulation administered, and the 4-HPR concentration in the formulation. The plasma concentration versus time profile was defined by the average plasma concentration at each sample time, and PK parameters were calculated using non-compartmental methods (PKSolver Version 2.0) using the average dose administered to the dosing group.
To illustrate the differences in 4-HPR plasma exposure profiles that would be expected in mice upon repeat-dose administration (b.i.d, 10 h/14 h at 20 mg/kg) of the different formulations, profiles were simulated using a simple compartmental PK approach. Initially, a linear 2-compartment model was fitted (PKSolver, Version 2.0) to the mean plasma concentration-time profile obtained after bolus IV administration of 4-HPR. The parameter estimates thus obtained (i.e., V1, k10, k12 and k21—see Supplementary Table S2) were considered to define the systemic disposition of 4-HPR and were fixed during simulation of the oral profiles. Oral profiles were simulated using a differential equation-based compartmental model scripted in Berkeley Madonna (version 8.3.1.8). Systemic disposition parameters were fixed as described above, under the assumption that the post-absorption distribution and elimination of 4-HPR was independent of the formulation administered. Bioavailability was fixed at the value determined by non-compartmental analysis, and the first order rate constant for compound absorption was manually varied until the simulated concentration-time profile was in close agreement with the experimental concentration-time data obtained after single-dose administration of pre-dispersed lipid formulation. […] These were obtained by setting the bioavailability (F) to the value determined for each formulation by non-compartmental analysis.

[7] = Stability in diluted plasma matrix; format: in vitro ADME; conditions: diluted mouse plasma (10% v/v in pH 7.4 PBS)
DENV2 = test system: DENV2; design: method as in PMID 25313218; conditions: b.i.d 180 mg/kg, AG129 mouse viremia model; cited from earlier work
[8] = male, C57Bl/6, mouse, in vivo, iv
[9] = male, C57Bl/6, mouse, iv, 2 mg/kg, single-dose 2 mg/kg IV, +ABT (50 mg/kg, b.i.d)
[10] = male, C57Bl/6, mouse, iv, 2 mg/kg, single-dose 2 mg/kg IV, −ABT

CC1=C(/C=C/C(C)=C/C=C/C(C)=C/C(=O)Nc2ccc(O)cc2)C(C)(C)CCC1 [4-HPR, N-(4-hydroxyphenyl) retinamide]
Stability in diluted plasma [1]: no evidence of any degradation
4-HPR Concentration (equilibrium solubility) ([2]; in Capmul-MCM-EP, 37 °C): 34 mg/g and 34 ± 4.3 mg/g
4-HPR Concentration (equilibrium solubility) ([2]; in Capryol 90, 37 °C): 48 ± 6.0 mg/g
4-HPR Concentration (equilibrium solubility) ([2]; in Captex 355 EP/NF, 37 °C): 14 ± 0.1 mg/g
4-HPR Concentration (equilibrium solubility) ([2]; in Corn oil, 37 °C): 3.9 ± 0.2 mg/g
4-HPR Concentration (equilibrium solubility) ([2]; in Cremophor EL, 37 °C): 10 ± 0.2 mg/g
4-HPR Concentration (equilibrium solubility) ([2]; in Ethanol, 37 °C): 113 mg/g and 113 ± 1.3 mg/g
4-HPR Concentration (equilibrium solubility) ([2]; in Gelucire 44/14, 37 °C): 6.0 ± 0.2 mg/g
4-HPR Concentration (equilibrium solubility) ([2]; in Kolliphor RH 40, 37 °C): 5.5 ± 0.6 mg/g
4-HPR Concentration (equilibrium solubility) ([2]; in Labrasol, 37 °C): 7.3 ± 0.1 mg/g
4-HPR Concentration (equilibrium solubility) ([2]; in Lauroglycol 90, 37 °C): 39 mg/g and 39 ± 1.4 mg/g
4-HPR Concentration (equilibrium solubility) ([2]; in Maisine 35-1, 37 °C): 21 ± 7.6 mg/g
4-HPR Concentration (equilibrium solubility) ([2]; in Maisine CC, 37 °C): 26 ± 1.6 mg/g
4-HPR Concentration (equilibrium solubility) ([2]; in PEG400, 37 °C): 82 ± 0.7 mg/g
4-HPR Concentration (equilibrium solubility) ([2]; in Polysorbate 80, 37 °C): 24 ± 4.9 mg/g
4-HPR Concentration (equilibrium solubility) ([2]; in Soybean Oil, 37 °C): 2.7 ± 0.1 mg/g
4-HPR Concentration (equilibrium solubility) ([2]; in Transcutol, 37 °C): 217 ± 8.8 mg/g
4-HPR Concentration (equilibrium solubility) ([2]; in Tween 85, 37 °C): 71 mg/g and 71 ± 9.1 mg/g
% Bound ([3]; human plasma): > 99.95%
Fraction Unbound 4-HPR ([3]; human plasma): < 0.0005
fraction unbound at 24 h, 2000 ng/mL ([3]; male, C57BL6, mouse plasma diluted to 10% v/v in PBS): < 0.0005
% Bound ([3]; mouse plasma): > 99.95%
Fraction Unbound 4-HPR ([3]; mouse plasma): < 0.0005
fraction unbound at 24 h, 2000 ng/mL ([3]; pooled human plasma diluted to 10% v/v in PBS): < 0.0005
EC50 (DENV [4]; DENV, read-out: In vitro EC50): 1 to 2 µM
EC50 (DENV [4]; all four infectious DENV strains in vitro, read-out: EC50): ~1 µM
Protection of infected mice (DENV [5]): 70%
EC50 (ZIKV): 1 to 2 µM
Fold increase in exposure with ABT treatment after IV dosage ([6]; IV 2 mg/kg, +ABT versus −ABT): 0.2 fold
V1 (2-compartment model estimate) ([6]; fit to IV data, −ABT): 0.233 L/kg
k21 (2-compartment model estimate) ([6]; fit to IV data, −ABT): 0.561 h⁻¹
k10 (2-compartment model estimate) [6, 8]: 1.20 h⁻¹
k12 (2-compartment model estimate) [6, 8]: 5.42 h⁻¹
half-life [6, 9]: 12.1 h
AUC(0-inf) [6, 9]: 24.5 µM·h
clearance ([6]; male, C57Bl/6, mouse, iv, 2 mg/kg, single-dose 2 mg/kg IV, +ABT (50 mg/kg, b.i.d), read-out: Plasma CL): 0.216 L/h/kg
Vd [6, 9]: 3.2 L/kg
half-life ([6]; male, C57Bl/6, mouse, iv, 2 mg/kg, single-dose 2 mg/kg IV, −ABT, 10% DMSO, 90% PEG400): 8.1 h
AUC(0-inf) [6, 10]: 21.6 µM·h
clearance ([6]; male, C57Bl/6, mouse, iv, 2 mg/kg, single-dose 2 mg/kg IV, −ABT, read-out: Plasma CL): 0.246 L/h/kg
Vd [6, 10]: 1.9 L/kg
clearance ([6]; male, C57Bl/6, mouse, iv, observed under both conditions (±ABT), read-out: In vivo systemic clearance): 0.264 L/h/kg
Stability in diluted plasma [7]: no evidence of any degradation
Reduction of DENV2 viremia (DENV2): > 50 fold
